Test results taken from paper PMC11436024, “E-Cyanoacrylamides and 5-Imino Pyrrolones against Trypanosoma cruzi: Activity and Induced Mechanisms of Cell Death” (Tropical Medicine and Infectious Disease, 2024).

Tests used:
[1] = tested on: amastigote form of T. cruzi; assay: In vitro amastigote activity assay (alamarBlue, intracellular parasites in macrophages); format: cell-based, Trypanosoma cruzi
Procedure: To perform the assay against the intracellular form of the parasite, the same colorimetric method based on the alamarBlue was developed. To produce the internalization of the parasites, an excess of epimastigote forms were added (10^5:10^4 parasites/macrophages in 100 µL of DMEM) to a 96-well plate for 24 h at 37 °C. Then, the wells were washed 3 times to eliminate the non-internalized parasites, and the serial dilutions of the compounds were added and dissolved in DMEM medium. After another incubation of 24 h at 37 °C, the drugs were eliminated and the cells were lysed with 0.05% SDS for 30 s. After adding LIT in a final volume of 200 µL and 10% of alamarBlue™ reagent, the plates were incubated for 96 h to promote the externalization of the parasites. Finally, the fluorescence was read using the EnSpire Multimode Plate Reader® and the inhibitory concentration 50 (IC50) was calculated. Inhibitory and cytotoxic concentrations (IC50, IC90, and CC50) were determined in duplicate on three different days using non-linear regression [Inhibitor] vs. response variable slope (four parameters) using non-linear regression analysis with 95% confidence, using GraphPad Prism 10.1.1 statistical software. The analysis was developed using Tukey’s test, considering significant values of p < 0.05. ANOVA analysis was also performed using GraphPad Prism 10.1.1.

[2] = tested on: Murine macrophages J774.A1; assay: Cytotoxicity assay (alamarBlue); format: cell-based; settings: murine macrophages, 24 h, mean ± standard deviation
Procedure: Murine macrophages J774.A1 strain ATCC #TIB-67, acquired from American Type Culture Collection (ATTC, LGC Promochem, Barcelona, Spain), were cultured in DMEM medium and maintained at 37 °C and 5% CO2. This assay followed the same principle as the previous one, but in this case, macrophages were used instead of parasites to determine the toxicity of the compounds. A total of 50 μL with a concentration of 2 × 10^5 cells/mL was added to each well with serial dilutions of the compounds in 50 μL of RPMI medium. After this, 10% of alamarBlue™ reagent was added and the plate was incubated at 37 °C and 5% CO2 for 24 h. After this time, the fluorescence was read using the EnSpire Multimode Plate Reader® and the cytotoxic concentration 50 (IC50) was calculated. Inhibitory and cytotoxic concentrations (IC50, IC90, and CC50) were determined in duplicate on three different days using non-linear regression [Inhibitor] vs. response variable slope (four parameters) using non-linear regression analysis with 95% confidence, using GraphPad Prism 10.1.1 statistical software. The analysis was developed using Tukey’s test, considering significant values of p < 0.05. ANOVA analysis was also performed using GraphPad Prism 10.1.1.

## N=C1C=CC(=O)N1c1ccccc1 [B]
[1]; Trypanosoma cruzi, Macrophage, amastigote form of T. cruzi in macrophages, 24 h with compound at 37 °C, mean ± standard deviation
  IC50: 10.8 ± 2.11 µM
[1]; against the amastigote form of T. cruzi, CC50 murine macrophages
  SI (selectivity index, CC50/IC50): 10.9
[2]
  IC50 (cytotoxic concentration 50, CC50): 118.07 ± 11.90 µM
